Measured values: PMC7170330 (Journal of Enzyme Inhibition and Medicinal Chemistry, 2020)
Several values for one entry are separate records, joined by “and”; a condition that tells them apart may be missing. Equal entries are not always repeated. Where two headings read alike, the source gives them in different places.

Assays:
[1] = ABTS radical cation scavenging activity; conditions: 0.2 mg/mL; mean ± SD, n = 3
Description: (§1) ABTS^•+ scavenging activity assay was performed according to Re method[51]^,[52]. The process of ABTS^•+ (2.0 mM) in water with potassium persulfate (K2S2O8) (2.45 mM) at room temperature in dark for 4 h. gave the ABTS cation radical. Dilution of ABTS^•+ was applied with sodium phosphate buffer (Na3PO4) (0.1 mol/l, pH 7.4) to measure the absorbance at 734 nm. The reactions of ABTS^•+ solution (1.0 ml) with samples solution in ethanol at different concentrations were performed. The inhibition was calculated at 734 nm for each concentration. The DPPH^• and ABTS^•+ free radical scavenging ability was calculated as the following equation: Radical scavenging activity (%) = [(Ac – As)/Ac] × 100. Where, Ac is the absorbance value of DPPH^• and ABTS^•+ before sample addition, while as is the absorbance value after sample addition.

[2] = Cupric ion reducing assay (CUPRAC); conditions: 0.2 mg/mL; mean ± SD, n = 3
Description: The reduction capacity for cupric ions (Cu^2+) was determined by Cupric Ions Reducing Assay (CUPRAC) assay as previously described[47]^,[48]. A volume of 0.25 ml neocuproine (7.5 mM) in ethanol, 0.25 ml NH4Ac (1 M) and 0.25 ml CuCl2 (0.01 M) was mixed with sample at different amounts and standards.

[3] = Fe3+ reducing power (FRAP, modified Oyaizu method); conditions: 0.2 mg/mL; 700 nm; mean ± SD, n = 3
Description: The power by metal-reducing of novel synthesised sulphonamide derivatives were determined by modified Oyaizu method[45]^,[46]. Different amounts of derivatives in 1 ml of ethanol were mixed with 0.5 ml of phosphate buffer (0.2 M, pH 6.6) and 0.5 ml of 1% potassium ferricyanide (K3Fe(CN)6). After the mixtures were incubated at 50 °C for 20 min, trichloroacetic acid (0.5 ml, 10%) was added to each mixture and centrifuged (at 1,008 G for 10 min.). The upper layers of the resulting solutions (0.5 ml) were first mixed with distilled water (0.5 ml) and then FeCl3 (0.1 ml, 0.1%) in the given order. absorbances were measured at 700 nm.

[4] = DPPH free radical scavenging activity; conditions: 0.05 mg/mL; mean ± SD, n = 3
Description: The free radical scavenging activity of standard antioxidants and synthesised sulphonamide derivatives was measured by DPPH using the Blois method[49]^,[50] 0.1 mM solution of DPPH^• in ethanol was prepared and 1 ml of this solution was added to 3 ml of the samples solution in ethanol at different concentrations. These solutions were vortexed thoroughly and kept in the darkness for 30 min. The absorbance values of this final mixture were measured at 517 nm. The reduced absorbance of the reaction mixture indicates higher free radical scavenging activity.
as §1

AChE = target: T1, AChE (Electrophorus electricus, UniProt O42275); experiment: biochemical; conditions: electric eel AChE, acetylthiocholine iodide/DTNB, 412 nm, mean ± SD
T1 construct: AChE activity isolated from electric eel (purchased); purchased; host or cells: isolated from electric eel
T1 sequence (O42275 24-633): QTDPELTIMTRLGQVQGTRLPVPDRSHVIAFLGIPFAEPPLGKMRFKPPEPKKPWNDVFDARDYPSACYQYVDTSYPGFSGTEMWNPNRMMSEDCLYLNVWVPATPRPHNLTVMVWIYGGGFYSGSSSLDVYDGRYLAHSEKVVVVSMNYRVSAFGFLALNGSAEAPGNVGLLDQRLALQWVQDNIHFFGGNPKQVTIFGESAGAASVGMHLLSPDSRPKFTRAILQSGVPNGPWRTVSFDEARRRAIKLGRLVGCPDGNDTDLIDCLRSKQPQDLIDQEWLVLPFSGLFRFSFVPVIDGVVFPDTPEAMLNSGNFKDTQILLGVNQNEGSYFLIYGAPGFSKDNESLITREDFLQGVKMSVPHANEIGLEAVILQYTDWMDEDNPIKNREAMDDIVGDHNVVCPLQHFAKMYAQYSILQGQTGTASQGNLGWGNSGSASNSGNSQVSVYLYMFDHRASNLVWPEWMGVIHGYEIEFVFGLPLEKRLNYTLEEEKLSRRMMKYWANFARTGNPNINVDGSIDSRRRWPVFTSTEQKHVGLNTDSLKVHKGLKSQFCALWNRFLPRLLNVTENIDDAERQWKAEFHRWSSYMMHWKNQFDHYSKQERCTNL
Description: AChE activity isolated from electric eel (purchased) was performed by a modified version of the Ellman method[63]. The measurement of AChE activity was performed using Acetylthiocholine (ATChI) iodide as the substrates and 5,5-Dithiobis(2-nitrobenzoic) acid (DTNB)[64]. The ATChI iodide as the substrates was monitored spectrophotometrically at 412 nm as in our previous assays[65]^,[66].

hCA II = hCA II (Homo sapiens, UniProt P00918); experiment: hCA II esterase activity inhibition (p-nitrophenylacetate); type: biochemical; conditions: for Ki: esterase activity, p-nitrophenylacetate substrate, Lineweaver-Burk, mean ± SD; for Selectivity index KI (hCA II/hCA I): ratio of KI values
hCA I = hCA I (Homo sapiens, UniProt P00915); experiment: biochemical; conditions: esterase activity, p-nitrophenylacetate substrate, Lineweaver-Burk, mean ± SD
Chain of hCA I (P00915 whole entry): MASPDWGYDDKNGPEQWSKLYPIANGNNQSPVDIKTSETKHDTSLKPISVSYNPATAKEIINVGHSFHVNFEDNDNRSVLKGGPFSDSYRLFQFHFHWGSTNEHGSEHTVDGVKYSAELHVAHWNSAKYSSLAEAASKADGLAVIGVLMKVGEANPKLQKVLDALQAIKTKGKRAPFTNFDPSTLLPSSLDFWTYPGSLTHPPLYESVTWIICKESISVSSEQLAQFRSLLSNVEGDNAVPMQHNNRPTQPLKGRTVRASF

SMILES	ABTS radical scavenging activity [1] [%]	Cu2+ reducing ability [2] [absorbance]	Fe3+ reducing ability [3] [absorbance]	DPPH radical scavenging activity [4] [%]	Ki (AChE; read-out: KI AChE) [nM]	Ki (hCA II; read-out: KI hCA II)	Selectivity index KI (hCA II/hCA I) (hCA II)	Ki (hCA I; read-out: KI hCA I)	Ki (AChE; KI AChE) [nM]	Ki (hCA II; KI hCA II) [nM]	Ki (hCA I; KI hCA I) [nM]
COc1ccc(O)c(C(C)(C)C)c1 [BHA, butylated hydroxyanisole, reference compound]	79.5 ± 6.1	2.28 ± 0.13	1.23 ± 0.20	21.7 ± 1.9							
Cc1cc(C(C)(C)C)c(O)c(C(C)(C)C)c1 [BHT, butylated hydroxytoluene, reference compound]	98.9 ± 9.1	2.00 ± 0.11	0.67 ± 0.01	47.0 ± 5.2							
NS(=O)(=O)c1cccc(N=Cc2cccc(Br)c2O)c1 [Compound 1, 3-((3-Bromo-2-hydroxybenzylidene)amino)benzenesulfonamide]	18.4 ± 2.0	0.22 ± 0.02	0.15 ± 0.03	18.7 ± 1.5	24.3 ± 1	16.4 ± 0.7 nM	0.27	59.7 ± 0.1 nM			
NS(=O)(=O)c1cccc(N=Cc2cccc(Cl)c2O)c1 [Compound 2, 3-((3-Chloro-2-hydroxybenzylidene)amino)benzenesulfonamide]	15.1 ± 1.4	0.26 ± 0.04	0.27 ± 0.02	8.2 ± 0.4	21	13.8 ± 0.1 nM	0.21	66.6 nM and 66.5 nM			
NS(=O)(=O)c1ccc(N=Cc2cccc(Br)c2O)cc1 [Compound 3, 4-((3-Bromo-2-hydroxybenzylidene)amino)benzenesulfonamide]	7.3 ± 0.6	0.28 ± 0.04	0.11 ± 0.01	5.9 ± 0.4	34.9 ± 1.4	26.3 ± 0.09 nM	0.33	80.5 ± 1.5 nM			
NS(=O)(=O)c1ccc(N=Cc2cccc(Cl)c2O)cc1 [Compound 4, 4-((3-Chloro-2-hydroxybenzylidene)amino)benzenesulfonamide]	14.7 ± 0.9	0.24 ± 0.05	0.33 ± 0.02	12.7 ± 0.9	27.9 ± 1.3	79.3 ± 0.2 nM	1.98	40.1 ± 0.6 nM			
NS(=O)(=O)c1cccc(NCc2cccc(Br)c2O)c1 [Compound 5, 3-((3-Bromo-2-hydroxybenzyl)amino)benzenesulfonamide]	76.8 ± 8.1	0.99 ± 0.07	0.33 ± 0.03	1.9 ± 0.09	61.2 ± 4	19.8 ± 1.2 nM	0.38	52.1 ± 0.7 nM			
NS(=O)(=O)c1cccc(NCc2cccc(Cl)c2O)c1 [Compound 6, 3-((3-Chloro-2-hydroxybenzyl)amino)benzenesulfonamide]	77.7 ± 7.9	0.93 ± 0.07	0.47 ± 0.06	9.2 ± 0.6	25.7 ± 1	29.1 ± 0.3 nM	0.29	101 ± 1.9 nM			
NS(=O)(=O)c1ccc(NCc2cccc(Br)c2O)cc1 [Compound 7, 4-((3-Bromo-2-hydroxybenzyl)amino)benzenesulfonamide]	74.5 ± 6.4	1.15 ± 0.08	0.39 ± 0.04	4.2 ± 0.4			0.16	62.3 nM	77 ± 9.3	10.1	
NS(=O)(=O)c1ccc(NCc2cccc(Cl)c2O)cc1 [Compound 8, 4-((3-Chloro-2-hydroxybenzyl)amino)benzenesulfonamide]	78.4 ± 7.7	0.80 ± 0.05	0.33 ± 0.07	3.2 ± 0.6		62 nM and 61.9 nM	1.93		31.4 ± 1.2		32.1
Cc1c(C)c2c(c(C)c1O)CCC(C)(C(=O)O)O2 (stereo not shown) [Trolox, reference compound]	94.4 ± 9.0	1.81 ± 0.05	1.27 ± 0.12	57.8 ± 6.8							
